{
  "source": "ChEMBL document CHEMBL1129306",
  "about": "“3-((4-(4-Chlorophenyl)piperazin-1-yl)-methyl)-1H-pyrrolo-2,3-b-pyridine: an antagonist with high affinity and selectivity for the human dopamine D4 receptor” (J Med Chem, 1996)",
  "key": {"[1]": {"molecular_target": "T1, D(4) dopamine receptor (Homo sapiens, UniProt P21917)", "T1 sequence (P21917 whole entry)": "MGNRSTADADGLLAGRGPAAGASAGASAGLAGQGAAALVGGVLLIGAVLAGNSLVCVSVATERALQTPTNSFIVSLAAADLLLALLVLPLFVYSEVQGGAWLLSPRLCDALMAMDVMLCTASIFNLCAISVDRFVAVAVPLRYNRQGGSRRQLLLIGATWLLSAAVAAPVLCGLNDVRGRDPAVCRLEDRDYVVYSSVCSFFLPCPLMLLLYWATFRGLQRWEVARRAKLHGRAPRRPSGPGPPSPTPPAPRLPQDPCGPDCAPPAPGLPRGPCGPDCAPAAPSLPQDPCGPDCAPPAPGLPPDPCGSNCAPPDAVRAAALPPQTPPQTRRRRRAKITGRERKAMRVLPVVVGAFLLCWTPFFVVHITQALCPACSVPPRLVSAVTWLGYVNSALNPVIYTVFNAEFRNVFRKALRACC", "assay": "biochemical", "description": "Binding affinity towards cloned human Dopamine receptor D4 stably expressed in CHO cells was evaluated using [3H]spiperone as radioligand"}, "[2]": {"molecular_target": "D(3) dopamine receptor (Homo sapiens, UniProt P35462)", "sequence (P35462 whole entry)": "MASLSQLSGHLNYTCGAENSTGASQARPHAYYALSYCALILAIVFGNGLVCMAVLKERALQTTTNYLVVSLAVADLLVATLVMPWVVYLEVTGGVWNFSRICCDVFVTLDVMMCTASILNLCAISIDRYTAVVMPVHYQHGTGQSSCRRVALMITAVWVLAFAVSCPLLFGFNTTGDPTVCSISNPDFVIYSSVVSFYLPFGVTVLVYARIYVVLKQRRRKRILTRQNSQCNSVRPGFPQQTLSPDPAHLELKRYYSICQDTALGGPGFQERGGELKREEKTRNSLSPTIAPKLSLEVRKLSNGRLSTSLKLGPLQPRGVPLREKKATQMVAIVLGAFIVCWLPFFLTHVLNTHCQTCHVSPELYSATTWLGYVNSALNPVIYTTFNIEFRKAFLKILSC", "assay": "biochemical", "description": "Binding affinity towards cloned human Dopamine receptor D3 stably expressed in CHO cells was evaluated using [3H]spiperone as radioligand"}},
  "note": "pKi: −log10 of the molar value.",
  "data": [
    {"compound": "OC1(c2ccc(Cl)cc2)CCN(Cc2c[nH]c3ccccc23)CC1", "values": [
      {"measurement": "pKi", "setting": "[1]", "result": 6.66},
      {"measurement": "pKi", "setting": "[2]", "result": 7.00}
    ]},
    {"compound": "CC1CCN(Cc2c[nH]c3ccccc23)CC1", "values": [
      {"measurement": "pKi", "setting": "[1]", "result": 6.24},
      {"measurement": "pKi", "setting": "[2]", "result": 5.17}
    ]},
    {"compound": "c1ccc2c(CN3CCCCC3)c[nH]c2c1", "values": [
      {"measurement": "pKi", "setting": "[1]", "result": "< 5.59"},
      {"measurement": "pKi", "setting": "[2]", "result": "< 5.43"}
    ]},
    {"compound": "c1ccc(C2CCN(Cc3c[nH]c4ccccc34)CC2)cc1", "values": [
      {"measurement": "pKi", "setting": "[1]", "result": 7.60},
      {"measurement": "pKi", "setting": "[2]", "result": 7.02}
    ]},
    {"compound": "c1ccc(N2CCN(Cc3c[nH]c4ccccc34)CC2)cc1", "values": [
      {"measurement": "pKi", "setting": "[1]", "result": 8.10},
      {"measurement": "pKi", "setting": "[2]", "result": 6.55}
    ]},
    {"compound": "Ic1ccc(N2CCN(Cc3c[nH]c4ncccc34)CC2)cc1", "values": [
      {"measurement": "pKi", "setting": "[1]", "result": 9.29},
      {"measurement": "pKi", "setting": "[2]", "result": "< 5.35"}
    ]}
  ]
}
